Assays:
AKAP1 = molecular target: T1, AKAP1 (Mus musculus, UniProt O08715); test: Drug Affinity Responsive Target Stability (DARTS) in BAT or brown adipocyte extracts, AKAP1; type: binding; details: mouse brown adipocyte extracts, 1 h, 20 μM (CL316,243 20 nM)
T1 construct: from tissue; host or cells: mouse brown adipose tissue (BAT) lysate; also mouse brown adipocyte extracts
T1 sequence (O08715 30-857): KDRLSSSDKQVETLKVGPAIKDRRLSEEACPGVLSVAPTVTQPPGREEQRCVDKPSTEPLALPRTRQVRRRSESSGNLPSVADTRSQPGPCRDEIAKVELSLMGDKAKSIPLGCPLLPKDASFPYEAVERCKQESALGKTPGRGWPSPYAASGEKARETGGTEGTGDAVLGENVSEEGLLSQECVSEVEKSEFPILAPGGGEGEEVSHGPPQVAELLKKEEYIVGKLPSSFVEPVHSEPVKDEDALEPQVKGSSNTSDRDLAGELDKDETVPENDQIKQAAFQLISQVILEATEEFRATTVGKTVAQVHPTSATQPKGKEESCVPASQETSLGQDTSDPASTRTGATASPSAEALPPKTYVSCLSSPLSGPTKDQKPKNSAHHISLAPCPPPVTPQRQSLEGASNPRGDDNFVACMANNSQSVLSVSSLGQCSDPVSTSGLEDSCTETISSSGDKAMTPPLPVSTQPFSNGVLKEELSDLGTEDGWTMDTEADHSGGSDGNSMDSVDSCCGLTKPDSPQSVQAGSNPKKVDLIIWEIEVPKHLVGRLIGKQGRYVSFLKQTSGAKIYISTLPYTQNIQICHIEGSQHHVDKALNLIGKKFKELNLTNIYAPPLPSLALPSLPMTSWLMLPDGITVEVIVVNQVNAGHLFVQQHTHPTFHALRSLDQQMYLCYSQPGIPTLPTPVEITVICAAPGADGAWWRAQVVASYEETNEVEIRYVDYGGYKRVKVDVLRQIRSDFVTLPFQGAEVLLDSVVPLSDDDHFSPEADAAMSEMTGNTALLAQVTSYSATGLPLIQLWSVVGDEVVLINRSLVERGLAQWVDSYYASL
Description: […] assays were performed according to known methods. Briefly, BAT or cells within a 10 cm dish were lysed with 600 μl M-PER buffer containing protease and phosphatase inhibitors. Debris was pelleted by centrifugation at 18,000 g for 10 min at 4° C., and the lysates were harvested and supplemented with TNC buffer (50 mM Tris-HCl, 50 mM NaCl, 10 mM CaCl2). The lysates were split into two tubes and treated with either vehicle or 20 μM Z160 for 1 h at room temperature. For experiment with BAT, 100 μg of lysate was incubated with different Z160 concentrations. Different concentrations of pronase (from 1:100 to 1:10,000 dilution from a 1.25 mg/ml pronase stock) were incubated with the samples for 30 min at room temperature and the reaction was stopped with SDS loading buffer followed immediately by heating at 70° C. for 10 min. Protein lysates were separated by SDS-PAGE and transferred to a nitrocellulose membrane. After blocking in 5% milk, 0.1% Tween-20 in Tris-buffered saline (TBS), primary antibody was incubated overnight at 4° C. in 5% bovine serum albumin and 0.1% Tween-20 in TBS. Primary antibodies against AKAP1 (5203, Cell Signaling), AKAP13 (39715, One World Lab), GAPDH (GTX100118, Genetex), OPA1 (39557, One World Lab), PKA C-α (4782, Cell Signaling), PKA RII-β (ab75993, Abcam), were used at 1:2000. A goat anti-rabbit secondary antibody (sc-2030, Santa Cruz Biotechnology, Inc) was used at a 1:10,000 dilution for 1 h at room temperature in 5% milk and 0.1% Tween-20 in TBS.
The PKA tetramer consists of two catalytic and two regulatory subunits. In the mouse, these are catalytic subunits C-α and C-β, and regulatory subunits RI and RII, each with α and β isoforms (RI-α, RI-β, RII-α, RII-β). PKA is also bound to a family of anchoring proteins, A-kinase anchoring proteins (AKAPs), which allow the compartmentalization of cAMP signaling. To investigate whether Z160 binds PKA complex proteins, two techniques were applied both of which rely on ligand-induced alterations in protein stability: Cellular Thermal Shift Assay (CETSA) and Drug Affinity Responsive Target Stability (DARTS). CETSA is based on the principle that ligand binding will change the temperature at which a protein starts to unfold and aggregate, while DARTS relies on the protection of a protein from proteolysis upon specific binding to a small molecule.
To provide further evidence for an interaction between Z160 and AKAP1, DARTS assays were employed. Lysates from brown fat were treated with different Z160 concentrations for 1 h followed by pronase digestion and immunoblotting. […] The effect of Z160 on AKAP1 was confirmed using mouse brown adipocyte extracts (FIG. 15A).

Ucp1 = test: Gene expression by qPCR in immortalized brown adipocytes; type: cell-based, mouse; details: for effect of antagonist on induction of Ucp1 mRNA by Z160: 20 μM antagonist 1 h prior to and during overnight 10 μM Z160
Description: Primary brown adipocytes were isolated according to known methods. An established mouse brown adipocyte cell line was obtained from Dr. Bruce Spiegelman (Dana-Farber Cancer Institute, Boston, USA). To differentiate primary and immortalized brown adipocytes, cells were grown until confluency in DMEM containing 10% FBS, 25 mM glucose 1 mM pyruvate, 2 mM glutamine, 20 nM insulin, 1 nM T3, and antibiotics. Once confluent (day 0), differentiation was induced by supplementing the medium with 0.5 mM IBMX, 0.5 μM dexamethasone, and 0.125 mM indomethacin, for 2 days. Differentiation was continued in the original medium (without IBMX, dexamethasone and indomethacin) for 7-10 days.
TScreening was conducted at the UCLA Molecular Screening Shared Resource using automated instruments Immortalized brown adipocytes were differentiated in T225 flasks and plated in Matrix 384-well plates (26,000 cells per well) with white flat bottom (ThermoScientific) using trypsin and collagenase type II (Sigma C6885). The small molecule libraries screened were a BioMol library (204 compounds), an FDA-approved drug library (1120 compounds), a Microsource spectrum collection (2000 compounds), and a druggable compound set (8000 compounds). Molecules were delivered at 10 μM final concentration in DMSO. The screen was performed in duplicate on different days. After 18 h, luciferase activity was measured with Bright-Glo luciferase assay system and an LJL instrument. Data were normalized to the basal response (100% activity) in the presence of DMSO. Following the primary screen, 92 molecules were selected for validation and used to treat brown adipocyte cells plated in a 96-well plate overnight. RNA was extracted with an SV 96 Total RNA Isolation System (Promega). Compounds used for follow-up studies were identified using search tools available from Molport (molport.com), and ordered from the same company.
(§1) RNA levels were measured by qPCR according to known methods. Briefly, RNA was extracted with TRIzol (Invitrogen) and reverse transcribed with iScript (Bio-Rad). Real-time PCR analysis was performed with a CFX Connect (Bio-Rad).
Mouse RNA levels were measured by qPCR according to known methods. Data were normalized to B2m and Tbp reference genes. Human RNA was extracted using an RNA Mini Plus kit (Zymo) and gene expression determined by Taqman assay. The 1-step qPCR was run on a QuantStudio 12K Flex Real Time PCR System (ThermoFisher) using the following protocol: 50° C. for 5 minutes, 95° C. for 20 seconds, 40 cycles of 95° C. for 15 seconds and 60° C. for 60 seconds. Data were normalized to PPIA and PSMB2 reference genes. For global gene expression analysis, RNA isolated from brown adipocytes treated with compounds as indicated (four biological replicates) was hybridized to Illumina mouse Ref 8 V2.0 bead chips at the University of California, Los Angeles Neuroscience Genomics Core as previously described. Data were processed with GenomeStudio V2011.1 using the quantile normalization, background subtraction, and a present call of P<0.05.

PKA = PKA activity ELISA, cell or tissue lysates treated 30 min; type: biochemical, mouse; details: cell lysates, 500 μM H-89 10 min, then 50 μM Z160 30 min
Description: PKA kinase activity was measured with an ELISA that utilized a synthetic peptide as substrate for PKA and a polyclonal antibody that recognizes the phosphorylated form of the substrate (ab139435, Abcam). PKA activity was measured in lysates from cultured brown adipocytes, mouse BAT, or liver. Cells and tissues were lysed in 20 mM MOPS, 5 mM EGTA, 2 mM EDTA, and 0.1% Triton X-100 supplemented with protease and phosphatase inhibitor as described above. Protein concentration was determined by Bradford assay and 10 μg of cells, 0.25 μg of BAT extract, or 0.5 μg of liver extract were assessed for PKA activation according to the manufacturer's instruction, with minor changes. Briefly, vehicle or Z160 was incubated with brown adipocyte cells overnight or with protein lysates for 30 min, followed by one wash before the primary antibody, 60 min incubation with the primary antibody, 30 min incubation with the secondary antibody, and by 10 min washing. Absorbance was measured after the substrate was added for 20-60 min, depending the intensity of the signal.

NRVM [1] = test: Hypertrophic gene expression in neonatal rat ventricular myocytes; type: cell-based; details: agonist alone, 48 h
Description: (§2) Rat H9c2 cells were grown in DMEM supplemented with 10% FBS, 25 mM glucose, 1 mM pyruvate, and 2 mM glutamine Neonatal rat ventricular myocytes (NRVM) were isolated and cultured as previously described. Briefly, 2-4 day old rats were sacrificed and myocytes and fibroblasts were isolated and separated using a Percoll density gradient. Following isolation, NRVMs were plated on gelatin-coated plates in DMEM containing 10% FBS, 25 mM glucose, 1 mM pyruvate, and 2 mM glutamine The next day, FBS was replaced by 1× insulin-transferrin-selenium supplement and the cells were treated with vehicle or 10 μM Z160 for 2 days, with or without 60 μM isoproterenol or 50 μM phenylephrine.
as §1

NRVM [2] = test: Respirometry (reserve capacity) in neonatal rat ventricular myocytes; type: cell-based; details: 48 h 100 μM isoproterenol followed by 24 h rest
Description: as §2
NRVM were seeded in a Seahorse Bioscience XF96 plate and cultured for 48 h in 10% FBS. Next, cells were treated with 100 μM ISO for 48 h, followed by 24 h of 10 μM Z160. Oxygen consumption rate (OCR) was recorded in a Seahorse Bioscience XF96 analyzer before and after the sequential injection of 0.75 μM oligomycin, 0.75 μm FCCP and 0.75 μM rotenone/myxothiazol. Reserve capacity was calculated as the difference between basal respiration and FCCP response.

## C[C@H](Cc1ccc2c(c1)OC(C(=O)[O-])(C(=O)[O-])O2)NC[C@H](O)c1cccc(Cl)c1.[Na+].[Na+] [CL316,243, reference compound]
AKAP1
  effect on AKAP1 (pronase susceptibility): not observed

## c1ccc(CC2=NCCN2)cc1 [tolazoline, reference compound]
Ucp1
  effect of antagonist on induction of Ucp1 mRNA by Z160: did not prevent

## O=S(=O)(NCCNC/C=C/c1ccc(Br)cc1)c1cccc2cnccc12 [H-89, reference compound]
Ucp1; 20 μM H-89 1 h prior to and during overnight 10 μM Z160
  effect of antagonist on Z160 enhancement of Cidea and Elovl3 expression: blunted
Ucp1
  effect of antagonist on induction of Ucp1 mRNA by Z160: blocked the effect of Z160
PKA
  PKA activity and Z160 response after pre-incubation with PKA antagonist: reduced the PKA activity and negated the Z160 response

## Oc1ccc(-c2nc(-c3ccncc3)c(-c3ccc(F)cc3)[nH]2)cc1 [SB202190, reference compound]
Ucp1
  effect of antagonist on induction of Ucp1 mRNA by Z160: blocked the effect of Z160

## CNC[C@H](O)c1cccc(O)c1 [phenylephrine]
NRVM [1]
  expression of Nppa and Nppb: induced the expression
  expression of Pln: reduced expression
NRVM [1]; listed as PE
  expression of Nppa and Nppb: increase
  expression of Pln: decreasing

## CC(C)NCC(O)c1ccc(O)c(O)c1 (stereo not drawn) [isoproterenol]
NRVM [2]
  reserve capacity of mitochondrial respiration: decreased the reserve capacity
NRVM [1]
  expression of Nppa and Nppb: induced the expression
  expression of Pln: reduced expression
NRVM [1]; listed as ISO
  expression of Nppa and Nppb: increase
  expression of Pln: decreasing
